{
  "source": "patent US20030073206A1",
  "about": "“Use of xylene monooxygenase for the oxidation of substituted monocyclic aromatic compounds” (priority 2001, published 2003)",
  "key": {"Sphingomonas strain ASU1": {"system": "Sphingomonas strain ASU1", "assay": "Carbon source utilization for strain ASU1 (growth on S12 agar with aromatic compounds)", "assay_type": "cell-based, Sphingomonas sp.", "details": "compound as sole source of carbon and energy, 28° C.", "procedure": "S12 agar was used to isolate bacteria from liquid enrichment cultures that grow on 2,6-dimethylnaphthalene (2,6-DMN) and to test isolates for growth with various sources of carbon and energy. S12 agar was prepared by adding 1.5% Noble agar (DIFCO) to S12 medium.\nBacteria that grow on 2,6-DMN were isolated from an enrichment culture. The enrichment culture was established by inoculating 0.1 mL of activated sludge into 10 mL of S12 medium in a 125 mL screw cap Erlenmeyer flask. The activated sludge was obtained from a wastewater treatment facility in Ponco City. The enrichment culture was supplemented with adding yeast extract (0.001 % final concentration) by adding a few flakes of 2,6-DMN directly to the culture medium. The enrichment culture was incubated at 28° C. with reciprocal shaking. The culture was diluted every 4 to 7 d by replacing 9 mL of the culture with the same volume of S12 medium with 0.001% yeast extract and a few additional flakes of 2,6-DMN. Bacteria that utilized 2,6-DMN as a sole source of carbon and energy were isolated by spreading samples of the enrichment culture onto S12 agar. 2,6-DMN was placed on the interior of each Petri dish lid. The Petri dishes were sealed with parafilm and incubated upside down at 28° C. Representative bacterial colonies were then tested for the ability to use 2,6-DMN as a sole source of carbon and energy. […]"}, "[1]": {"target": "T1, xylene monooxygenase (xylM and xylA) cloned from plasmid pWWO (Pseudomonas putida, UniProt P21395)", "T1 construct": "expressed in transfected cells; host or cells: Escherichia coli TOP10 carrying pCR2.1-TOPO with a 2.4 kb pWWO xylM-xylA PCR fragment from P. putida ATCC 33015 (Clone 6f)", "T1 sequence (P21395 whole entry, the tested form may be a part)": "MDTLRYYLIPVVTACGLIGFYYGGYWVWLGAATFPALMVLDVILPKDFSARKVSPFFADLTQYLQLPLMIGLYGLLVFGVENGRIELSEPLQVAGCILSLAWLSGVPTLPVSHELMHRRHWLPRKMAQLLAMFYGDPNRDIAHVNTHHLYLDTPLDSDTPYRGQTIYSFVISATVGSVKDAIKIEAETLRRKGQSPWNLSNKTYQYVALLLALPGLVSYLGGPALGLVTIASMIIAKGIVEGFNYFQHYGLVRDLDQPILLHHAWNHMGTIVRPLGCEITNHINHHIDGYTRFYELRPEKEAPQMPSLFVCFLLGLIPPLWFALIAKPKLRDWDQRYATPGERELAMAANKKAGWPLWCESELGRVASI", "assay": "Oxidation of p-xylene by Escherichia coli recombinant with cloned pWWO xylene monooxygenase genes (Clone 6f), HPLC of culture supernatant", "assay_type": "cell-based", "details": "Clone 6f culture in M9 medium with p-xylene, 37° C., after 24 h of incubation", "procedure": "(§1) Standard M9 minimal medium were used to assay for oxidation of p-xylene by Escherichia coli with cloned xylene monooxygenase. The M9 medium consisted of 42.3 mM Na2HPO4, 22.1 mM KH2PO4, 8.6 mM NaCl, 18.7 mM NH4Cl, 2 mM MgSO4 and 0.1 mM CaCl2, 0.4% of glycerol was used as the carbon/energy source.\n(§2) Analyses were performed on a Hewlett Packard 1100 series with a photo diode UV-visible detector set at 230 nm (primary wavelength), 254 nm (secondary wavelength) and 450 nm as background reference and a LC/MSD-ESI negative ion spectrophotometer. The column was a Hewlett Packard part # 880967.901 Zorbax® SB-C8 (4.6 mm×25 cm), purchased from Agilient Technologies (Palo Alto, Calif.). The column temperature was controlled at 50° C. Mobile phase was […] ammonium acetate (20 mL 1 M ammonium acetate in 1800 mL water (solvent-2=S-2)) and acetonitrile (solvent-1=S-1). […]\n(§3) The conversion of p-xylene to 4-hydroxymethylbenzoic acid was monitored by reverse phase HPLC. […]\n(§4) Escherichia coli strain TOP10(pCR®2.1 TOPO™) and Escherichia coli clones expressing xylene monooxygenase (Clone 4a and Clone 6f) were inoculated into 500 mL Erlenmyer flasks containing 50 mL of M-9 supplemented with tryptophan (100 μg/mL), glycerol (0.4%), casamino acids (0.4%) and 50 μg/mL ampicillin. […] The sample supernatants were passed through 0.22 μm Acrodisc® CR PFTE filters and analyzed for metabolites of p-xylene by HPLC."}, "[2]": {"system": "xylene monooxygenase (xylM and xylA) cloned from Sphingomonas strain ASU1", "assay": "Oxidation of p-xylene by Escherichia coli recombinant with cloned ASU1 xylene monooxygenase genes (Clone 4a), HPLC of culture supernatant", "assay_type": "cell-based", "details": "Clone 4a culture in M9 medium with p-xylene, 37° C., after 24 h of incubation", "procedure": "as §1, §2, §3, §4"}},
  "data": [
    {"smiles": "c1ccccc1", "note": "[Benzene]", "values": [
      {"measurement": "Growth on Carbon Source", "setting": "Sphingomonas strain ASU1", "result": "unable to utilize"}
    ]},
    {"smiles": "Cc1ccc2cc(C)ccc2c1", "note": "[2,6-dimethylnaphthalene]", "values": [
      {"measurement": "Growth on Carbon Source", "setting": "Sphingomonas strain ASU1; listed as 2,6-DMN", "result": "able to grow"}
    ]},
    {"smiles": "Cc1ccc(C)cc1", "note": "[p-xylene]", "values": [
      {"measurement": "p-xylene metabolites detected by HPLC", "setting": "[1]", "result": "Three p-xylene metabolites were detected"},
      {"measurement": "p-xylene metabolites detected by HPLC", "setting": "[2]", "result": "Three p-xylene metabolites were detected"}
    ]}
  ]
}
